Reference: PMC8955938, “c-Myc Protein Level Affected by Unsymmetrical Bisacridines Influences Apoptosis and Senescence Induced in HCT116 Colorectal and H460 Lung Cancer Cells” (International Journal of Molecular Sciences, 2022)
“And” between values parts separate entries of the source, which are not always exact repeats. Identical values can stand only once.

Legend:
Type in all cases: cell-based, human
[1] = tested on: H460 cells; assay: MTT cell growth inhibition assay, H460
Description: (§1) To assess cell viability, the MTT assay was used. HCT116, H460, CCD 841 CoN and MRC-5 cells (20,000/well and 50,000/well for cancer and normal cells, respectively) were seeded in 24-well plates, and the following UAs were added at concentrations up to 10 μM: C-2028, C-2041, C-2045 and C-2053. Stock solutions (10 mM) were prepared in sterile water, as well as dilutions, also in water. After 72 h, 3-(4, 5-dimethylthiazol-2-yl)-2,5-diphenyltetrazolium bromide (MTT; 800 μg/well) was added for 3 h, then the formazan crystals were dissolved in DMSO, and absorbance was read at 540 nm. Each point was conducted at least 4 times, and data are expressed relative to controls. The concentration of the drug required to inhibit cells growth by 50 (IC50), 80 (IC80) and 90% (IC90) compared to untreated control cells was determined from the curves plotting survival as a function of dose.

[2] = tested on: MRC-5 cells; assay: MTT cell growth inhibition assay, MRC-5; conditions: for IC50: MRC-5 normal cells; for IC90: MRC5, MRC-5 normal cells
Description: as §1

[3] = tested on: MYC gene expression in H460 cells; assay: RT-PCR MYC expression in H460; conditions: H460, IC90 doses; for relative mRNA level of MYC gene: with time of incubation up to 120 h
Description: HCT116, H460, CCD 841 CoN and MRC-5 cells after treatment with UAs were collected, washed twice with ice-cold PBS and resuspended in […] of PBS. mRNA was isolated using High Pure RNA Isolation Kit according to the manufacturer’s instructions (Roche, Basel, Switzerland). Briefly, cells were lysed in lysis-binding buffer and transferred to a filter tube. Contaminating DNA was removed by 15 min incubation of the filter tube with DNase I solution. The filter tube was washed once with buffer I and twice with buffer II, and after centrifugation, total RNA was eluted using the elution buffer. RNA concentration was determined by NanoDrop One (Thermo Scientific); 1 µg of RNA was reverse transcribed using Transcriptor First Strand cDNA Synthesis Kit according to the manufacturer’s instructions (Roche) in 20 µL of reaction containing 1 µg of RNA, […] anchored-oligo(dT)18Primer, 8 mM MgCl2, 20 U of Protector RNase Inhibitor, deoxynucleotide mix (1 mM each) and 22 U of Transcriptor Reverse Transcriptase. The reverse transcription reaction was carried out for 30 min at 55 °C and stopped by heating to 85 °C for 5 min and placing on ice. The cDNA solution was stored at −20 °C until use. Real-time polymerase chain reaction (PCR) was performed on 2 µL of cDNA using 0.2 µM forward and reverse primers on LightCycler® 480 using LightCycler® 480 SYBR Green I Master according to manufacturer’s instructions (Roche). Primers were designed using BLAST website. Their efficiency was checked, and they were ordered from Genomed (Warsaw, Poland). The sequences of primers were as follows: MYC set 1 forward primer, […]; MYC set 1 reverse primer, […]; MYC set 2 forward primer, […]; MYC set 2 reverse primer, […]; KRAS forward primer, […]; KRAS reverse primer, […]; reference gene, GAPDH forward primer ACCCACTCCTCCACCTTTG; and GAPDH reverse primer, CTCTTGTGCTCTTGCTGGG. Cycling conditions were as follows: 1 cycle for 7 min at 95 °C (preincubation), 45 cycles of amplification: 10 s at 95 °C (denaturation), 20 s at 62 °C (annealing), 30 s at 72 °C (extension), 1 cycle for obtaining melting curve and 1 cycle for 10 s at 40 °C (cooling). The results were standardized to the reference gene GADPH. The relative expression level of MYC and KRAS was quantified using comparative method […]. The results were obtained from three independent experiments, each of which was analyzed at least twice.

[4] = tested on: H460 cells; assay: Cell cycle analysis (PI, flow cytometry), H460; conditions: H460, IC90 doses
Description: After drug treatment, trypsinized and floating cells (2 × 10^6) were pooled, washed twice with ice-cold PBS and fixed in 70% (v/v) ethanol overnight at −20 °C. Cells were stained with propidium iodide (PI) (BD Biosciences, San Jose, CA, USA) and monitored by FACS Accuri C6 (BD Biosciences, San Jose, CA, USA).

[5] = tested on: HCT116 cells; assay: Nuclear morphology (Hoechst 33342), HCT116; conditions: HCT116, IC90 doses
Description: Nuclear morphology was examined under a fluorescence microscope (OLYMPUS BX60, […]) after staining with Hoechst 33342. Briefly, after drug treatment, HCT116, H460, CCD 841 CoN and MRC-5 cells were spun onto microscopic slides, fixed with methanol:acetic acid (3:1) for 15 min and stained with Hoechst 33342 (1 mg/mL) for 15 min. Cells were regarded as apoptotic based on the presence of condensed, fragmented chromatin. Enlarged cells containing multiple nuclei were considered as typical of mitotic catastrophe.

[6] = tested on: active caspase-3 in HCT116 cells; assay: Active caspase-3 flow cytometry, HCT116; conditions: HCT116, IC90 doses, 120 h
Description: (§2) Caspase-3 activity was determined using Alexa Fluor 647-conjugated anti-active caspase-3 antibody (BD Biosciences, San Diego, CA, USA) according to the manufacturer’s instructions. Briefly, HCT116 and H460 cells (1 × 10^6) were trypsinized, pelleted, washed twice with ice-cold PBS and fixed in Fixation Buffer for 20 min on ice. After fixation, cells were rinsed twice with Perm Wash Buffer, stained with Alexa Fluor 647-conjugated anti-active caspase-3 antibody for 30 min, rinsed with Perm Wash Buffer and analyzed by flow cytometry with FACS Accuri C6 (BD, San Jose, CA, USA).

[7] = tested on: cleaved PARP in H460 cells; assay: PARP cleavage flow cytometry, H460; conditions: H460, IC90 doses
Description: as §2, with “PARP cleavage” for “Caspase-3 activity”, “anti-cleaved PARP” for “anti-active caspase-3”

Row | IC50 ([1]; Homo sapiens, NCI-H460, 72 h) [nM] | IC90 ([1]; Homo sapiens, NCI-H460, 72 h) [nM] | Structure (SMILES) | IC50 ([2]; Homo sapiens, MRC5, 72 h) [nM] | IC90 ([2]; Homo sapiens, 72 h) [nM] | relative mRNA level of MYC gene [3] | Poli (polyploid cells) ([4]; 24 h) [%] | cells in G1 ([4]; 24 h) [%] | cells in G2/M ([4]; 24 h) [%] | cells in S ([4]; 24 h) [%] | cells in Sub-G1 ([4]; 24 h) [%] | Poli (polyploid cells) ([4]; 72 h) [%] | cells in G1 ([4]; 72 h) [%] | cells in G2/M ([4]; 72 h) [%] | cells in S ([4]; 72 h) [%] | cells in Sub-G1 ([4]; 72 h) [%] | Poli (polyploid cells) ([4]; 120 h) [%] | cells in G2/M ([4]; 120 h) [%] | cells in S ([4]; 120 h) [%] | cells in Sub-G1 ([4]; 120 h) | cells with active caspase-3 [6] | also measured
1 | 95 ± 38 | 399 ± 52 | Cc1ccc([N+](=O)[O-])c2c(NCCCN(C)CCCNc3ccc4ncn5c6ccc(O)cc6c(=O)c3c45)c3ccccc3nc12 [Compound C-2045] | ~300 | 6130 ± 2350 | around 0.55 | 1.78 ± 0.33 | 32.25 ± 3.01 | 28.15 ± 2.14 | 26.56 ± 3.44 | 9.84 ± 4.46 | 2.05 ± 0.60 | 39.94 ± 4.65 | 20.87 ± 5.18 | 18.53 ± 5.99 | 18.66 ± 3.61 | 2.28 ± 1.33 | 21.49 ± 5.96 | 9.03 ± 1.37 | 42.42 ± 8.29% and 42.4% | 39.3% and 40% | IC50 ([2]; 72 h): 218 ± 37 nM; drop of MYC mRNA level [3]: 50%; apoptotic cells (nuclear morphology) ([5]; 72 h): 20.6%; cells with cleaved PARP ([7]; 72 h): 53.9%; cells with cleaved PARP ([7]; 120 h): 28.2%
2 | ≤ 16 | ≤ 50 | O=c1c2ccccc2n2cnc3ccc(NCCCN4CCN(CCCNc5c6ccccc6nc6cccc([N+](=O)[O-])c56)CC4)c1c32 [Compound C-2041] | 23 ± 4 | 6160 ± 2060 | 1.65 | 1.78 ± 0.42 | 31.30 ± 2.48 | 23.89 ± 5.34 | 34.76 ± 4.78 | 8.43 ± 3.14 | 2.52 ± 0.71 | 42.86 ± 1.87 | 21.24 ± 2.69 | 16.09 ± 2.94 | 17.43 ± 2.40 | 2.30 ± 0.60 | 14.84 ± 4.06 | 11.59 ± 1.16 | 36.47 ± 3.18% and 36.5% | 39.5% and 40% | IC50 ([1]; H460, 72 h): 15 ± 2 nM; IC90 ([1]; H460, 72 h): 46 ± 5 nM; cells in G1 ([4]; 120 h): 35.08 ± 3.65%; apoptotic cells (nuclear morphology) ([5]; 72 h): 29.4%; cells with cleaved PARP ([7]; 120 h): about 20%
3 | 25 ± 6 | 184 ± 22 | Cc1ccc([N+](=O)[O-])c2c(NCCCN(C)CCCNc3ccc4ncn5c6ccccc6c(=O)c3c45)c3ccccc3nc12 [Compound C-2053] | 120 ± 26 | 3800 ± 1340 | around 0.55 | 2.76 ± 0.30 | 30.44 ± 2.27 | 27.37 ± 2.20 | 33.77 ± 3.66 | 6.28 ± 1.52 | 1.73 ± 0.52 | 36.08 ± 5.84 | 24.96 ± 3.05 | 14.09 ± 2.46 | 22.37 ± 2.06 | 2.39 ± 1.17 | 19.77 ± 6.06 | 10.78 ± 1.76 | 41.51 ± 5.77% and 41.5% | 20.9% | drop of MYC mRNA level [3]: 50%; apoptotic cells (nuclear morphology) ([5]; 72 and 120 h): up to 6.4%; cells with cleaved PARP ([7]; 72 h): 47.8%; cells with cleaved PARP ([7]; 120 h): 43.3%
4 | ≤ 16 | ≤ 50 | CN(CCCNc1c2ccccc2nc2cccc([N+](=O)[O-])c12)CCCNc1ccc2ncn3c4ccccc4c(=O)c1c23 [Compound C-2028] | ~20 | 2690 ± 640 | stayed at the similar level | 1.70 ± 0.42 | 32.92 ± 3.77 | 21.64 ± 4.23 | 32.74 ± 2.09 | 11.09 ± 3.80 | 2.11 ± 0.55 | 37.15 ± 4.13 | 19.21 ± 6.60 | 15.80 ± 2.33 | 25.45 ± 7.20 | 4.03 ± 0.95 | 28.98 ± 3.64 | 9.93 ± 2.46 | 26.84 ± 1.92% and 26.8% | 34.8% and 40% | IC50 ([1]; H460, 72 h): 16 ± 2 nM; IC90 ([1]; H460, 72 h): 46 ± 4 nM; cells in G1 ([4]; 120 h): 29.87 ± 2.31%; cells with cleaved PARP ([7]; 120 h): about 20%
